Where “and” joins values, the source holds several entries; their conditions need not be identical. Equal entries are not always repeated.
Columns and labels:
SGLT1 = target: T1, SGLT1 (Homo sapiens, UniProt P13866); assay: Glucose transport inhibitor cell screening assay, 5 mM D-glucose for 15 minutes; conditions: Caco-2, read-out: % Glucose transport inhibiton 5 mM
T1 sequence (P13866 1-664): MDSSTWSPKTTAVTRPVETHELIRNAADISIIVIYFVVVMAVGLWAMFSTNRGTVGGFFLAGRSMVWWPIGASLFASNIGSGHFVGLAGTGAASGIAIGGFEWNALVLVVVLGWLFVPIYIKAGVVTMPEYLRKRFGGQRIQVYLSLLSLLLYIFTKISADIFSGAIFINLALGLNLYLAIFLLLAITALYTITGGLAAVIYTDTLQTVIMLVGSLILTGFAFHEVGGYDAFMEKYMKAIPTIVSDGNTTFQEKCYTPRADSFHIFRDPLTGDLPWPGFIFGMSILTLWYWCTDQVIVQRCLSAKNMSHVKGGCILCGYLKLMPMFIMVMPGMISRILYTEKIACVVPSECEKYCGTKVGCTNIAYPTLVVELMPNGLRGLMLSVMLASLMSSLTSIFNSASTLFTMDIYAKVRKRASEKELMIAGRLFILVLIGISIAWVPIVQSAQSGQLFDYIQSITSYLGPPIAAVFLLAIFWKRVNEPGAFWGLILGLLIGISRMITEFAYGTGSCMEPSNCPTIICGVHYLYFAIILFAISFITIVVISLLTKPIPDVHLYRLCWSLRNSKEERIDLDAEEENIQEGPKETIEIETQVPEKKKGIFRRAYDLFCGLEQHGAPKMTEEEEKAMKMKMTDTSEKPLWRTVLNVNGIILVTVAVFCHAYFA
Experimental: (§1) Human epithelial colorectal adenocarcinoma (Caco-2) cells were obtained from the American Type Culture Collection (ATCC) and cultured in Growth Medium consisting of Dulbecco's modified Eagle's medium (containing Glutamax-1, 4.5 g/L D-glucose and 25 mM 4-(2-hydroxyethyl)-1-piperazine ethanesulphonic acid (Hepes) (Invitrogen)), 10% foetal bovine serum (Sigma), 1% non-essential amino acids (Invitrogen) and 1 mM sodium pyruvate (Sigma)). The cells were routinely passaged at approximately 80% confluence using TrypLE™ Express Stable Trypsin-Like Enzyme (Invitrogen) to detach the cells, and seeded at approximately 114 cells per mm^2 in fresh tissue culture flasks. Only cells between the passage numbers 45 and 49 were used for experiments.
(§2) Corning® HTS Transwell® 96 well permeable insert supports (Sigma) were collagen coated with 40 μl of 50 μg/ml rat tail collagen type I (BD Biosciences) in 0.02 M acetic acid for one hour at room temperature under sterile conditions. The inserts were washed twice in phosphate buffered saline (PBS (Invitrogen)) and the Caco-2 cells seeded into the inserts at 1.0×10^6 cell/ml (75 μl per insert) in Growth Medium and 30 ml of Growth Medium added to the feeder plate below. The cells were left to attach to the collagen matrix and form monolayers over 48 hours at 37° C., 5% CO2. Both inserts and feeder plate were washed in PBS and the cells incubated with BD Entero-STIM™ Enterocyte Differentiation Medium containing MITO+™ Serum Extender solution (both BD Biosciences), 75 μl per insert and 30 ml in the feeder plate, for a further 48 hours at 37° C., 5% CO2.
(§3) Differentiated cell monolayers were washed gently in Dulbecco's Phosphate Buffered Saline containing CaCl2 and MgCl2 (PBS(+) (Invitrogen)) and the inserts transferred to a new Corning® HTS Transwell®-96 well receiver plate (Sigma). The cells were incubated with fresh PBS(+) (75 μl per insert and 225 μl per well) for 60 minutes at 37° C., 5% CO2. The PBS(+) was gently aspirated and replaced with 75 μl per insert of either 5 mM D-glucose (Sigma)±test compound or 25 mM D-glucose±test compound in triplicate and 225 μl per well of PBS(+) quickly added to each well. The 5 mM glucose wells and the 25 mM glucose wells were incubated at 37° C., 5% CO2 for 15 minutes and 30 minutes, respectively. […] The cell inserts were transferred to a new receiver plate, the supernatant gently aspirated from the cells and replaced with 100 μl of 100 μM of Lucifer Yellow (Sigma) solution to confirm the integrity of the monolayers. 225 μl of PBS(+) was added to each well and incubated at 37° C., 5% CO2 for 1 hour. The cell inserts were then discarded and the permeability of the membranes to Lucifer Yellow checked by measuring the fluorescence of the samples at 485 nm (excitation) and 530 nm (emission) on a Spectramax Gemini EM fluorescence microplate reader.
(§4) The amount of glucose transported across the cell monolayers was measured using a glucose assay based on Invitrogen's Amplex Red Glucose/Glucose oxidase Assay Kit. Briefly, 50 μl of each test sample was transferred to a black sided/clear bottom 96-well plate (Greiner Bio-One) to which 100 μl of reaction buffer (0.5 μl 10 mM Ampliflu Red, 1 μl 10 U/ml Horse Radish peroxidase, 1 μl 100 U/ml glucose oxidase and 97.5 μl PBS (all Sigma)) was added. After 10 minutes incubation at room temperature, the fluorescence of the samples was measured at 530 nm (excitation) and 590 nm (emission) on a Spectramax Gemini EM fluorescence microplate reader and the glucose concentration extrapolated from a standard curve.
(§5) At higher D-glucose concentrations, the SGLT1 transporter becomes saturated and consequently the majority of glucose transport across the monolayer is driven by the low affinity, high capacity GLUT2 transporter that is targeted to the apical membrane only following an initial SGLT1-dependent transport of glucose.

SGLT1 and GLUT2 = assay: Assigned class of transporter inhibited, from Caco-2 screening at 5 mM and 25 mM D-glucose; type: cell-based, human; conditions: from % inhibition at 5 mM and 25 mM D-glucose; compound 300 μM
[1] = tested on: glucose transport across differentiated Caco-2 cell monolayers; assay: Glucose transport cell model: 5 mM D-glucose 15 minutes, then 25 mM for 45 minutes, cumulative glucose transport; type: cell-based, human; design: unit not given here; conditions: added at 25 mM glucose step (NC at 5 mM), duplicate
Experimental: Caco-2 cells were cultured and routinely passaged as described in Example 1.
After the last incubation, all of the retained PBS(+) from each step (i.e. at 15, 30, 45 and 60 minutes) was assayed for glucose levels as described in Example 1, and the total cumulative glucose transport calculated. The localised changes in luminal glucose concentrations described and illustrated in example 1 are mimicked in-vitro through an initial short incubation of differentiated Caco-2 cells with a low level of D-glucose (5 mM for 15 minutes) immediately followed by a sustained incubation with a high level of D-glucose (final concentration of 25 mM for 45 minutes).
In the above table, every test pairing of a homisoflavonoid (HIF) and a flavonoid monoglucoside (FM) has 5 values reported: • 1. No Compound (NC)+NC • 2.
Synergy is achieved when the inhibition caused by the combination of HIF and FM is greater than the sum of the inhibition due to HIF alone added to the inhibition due to FM alone.

GLUT2 = target: T2, GLUT2 (Homo sapiens, UniProt P11168); assay: Glucose transport inhibitor cell screening assay, 25 mM D-glucose for 30 minutes; conditions: for inhibition at 300 µM: Caco-2, read-out: % Glucose transport inhibiton 25 mM; for identified as inhibitors of GLUT2: Caco-2 cell assay
T2 sequence (P11168 1-524): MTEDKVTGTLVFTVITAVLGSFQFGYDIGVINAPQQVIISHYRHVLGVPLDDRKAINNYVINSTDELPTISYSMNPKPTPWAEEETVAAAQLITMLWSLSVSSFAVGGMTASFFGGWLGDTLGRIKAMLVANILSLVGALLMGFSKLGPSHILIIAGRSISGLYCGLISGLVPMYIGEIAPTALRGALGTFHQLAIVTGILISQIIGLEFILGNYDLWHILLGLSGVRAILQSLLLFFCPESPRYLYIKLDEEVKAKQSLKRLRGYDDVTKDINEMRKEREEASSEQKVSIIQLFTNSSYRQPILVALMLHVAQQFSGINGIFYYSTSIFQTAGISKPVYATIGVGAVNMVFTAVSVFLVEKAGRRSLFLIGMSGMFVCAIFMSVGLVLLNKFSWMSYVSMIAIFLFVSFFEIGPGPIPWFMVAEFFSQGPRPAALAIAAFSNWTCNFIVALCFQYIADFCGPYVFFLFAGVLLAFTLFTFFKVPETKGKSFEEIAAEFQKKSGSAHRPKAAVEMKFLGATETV
Experimental: as §1, §2, §3, §4, §5

| inhibition at 300 µM (SGLT1) | inhibition at 300 µM (GLUT2) | identified as inhibitors of GLUT2 (GLUT2) | Compound | Class (assigned class of transporter inhibited) (SGLT1 and GLUT2) | Cumulative (AVE) glucose transport ([1]; homoisoflavonoid 2.5 uM alone) | Cumulative (AVE) glucose transport ([1]; homoisoflavonoid 5 uM alone) | Cumulative (AVE) glucose transport ([1]; homoisoflavonoid 10 uM alone) |
| --- | --- | --- | --- | --- | --- | --- | --- |
| 90.7 ± 1.4% | 66.6 ± 5.21% | inhibitors of GLUT2 | Cc1c(O)cc2c(c1O)C(=O)C(Cc1ccc(O)cc1)CO2 (stereo not shown) [EA1, 5,7-dihydroxy-3-(4′-hydroxybenzyl)-6-methylchroman-4-one] | GLUT2 (GLUT2 inhibitors having ≥20% inhibition at both 5 mM and 25 mM D-glucose levels) | 339.2 | 284.6 | 301.50 and 232.03 |
| 46.2 ± 2.04% | 30.6 ± 3.2% | inhibitors of GLUT2 | COc1ccc(C[C@@H]2COc3c(C)c(O)c(C)c(O)c3C2=O)cc1 [MOB, methylophiopogonanone B] | GLUT2 (GLUT2 inhibitors having ≥20% inhibition at both 5 mM and 25 mM D-glucose levels) |  | 200.59 |  |
| 89.9 ± 0.06% | 63 ± 2.94% | inhibitors of GLUT2 | COc1c(O)c(C)c(O)c2c1OCC(Cc1ccc(O)cc1)C2=O (stereo not shown) [EA2, 5,7-dihydroxy-3-(4′-hydroxybenzyl)-6-methyl-8-methoxychroman-4-one] | GLUT2 (GLUT2 inhibitors having ≥20% inhibition at both 5 mM and 25 mM D-glucose levels) |  |  | 283.98 |
| 39.3 ± 2.17% | 27.7 ± 3.7% | inhibitors of GLUT2 | Cc1c(O)c(C)c2c(c1O)C(=O)[C@H](Cc1ccc3c(c1)OCO3)CO2 [MOA, methylophiopogonanone A] | GLUT2 (GLUT2 inhibitors having ≥20% inhibition at both 5 mM and 25 mM D-glucose levels) |  | 231.69 |  |
